# According to patent publication US5077037A, “Novel compositions for magnetic resonance imaging” (Mallinckrodt Medical, Inc., priority 1990, dated 1991):
# Experiments:
# mouse = mouse i.v. LD50 (acute toxicity); format: in vivo; conditions: 0.5M solution, confidence limit of 14.3-18.4 mmol/kg
# [1] = relaxivity rates (Bruker NMR MiniSpec, 20 MHz, 40° C.); format: physicochemical
# [2] = sterile water for injection (SWFI)
structure (smiles),measurement,setting,value
O=C([O-])CN(CCN(CC(=O)[O-])CC(=O)NCC1CCCO1)CCN(CC(=O)[O-])CC(=O)NCC1CCCO1.[Gd+3] (centres unmarked) [Example 2],LD50 value,mouse,16.2 mmol/kg
same,relaxivity rate T1,[1]; 4% human serum albumin (HSA),4.8 mmol⁻¹ s⁻¹
same,relaxivity rate T2,[1]; 4% human serum albumin (HSA),4.8 mmol⁻¹ s⁻¹
same,relaxivity rate T1,[1]; [2],4.4 mmol⁻¹ s⁻¹
same,relaxivity rate T2,[1]; [2],5.6 mmol⁻¹ s⁻¹
